Measured values: patent publication US20140120060A1, “TREATMENT OF RHEUMATOID ARTHRITIS AND ASTHMA USING PI3 KINASE INHIBITORS” (INFINITY PHARMACEUTICALS, INC., priority 2012, published 2014)

system: developing adjuvant arthritis; experiment: Freund's complete adjuvant induced rat model of arthritis; assay type: in vivo; conditions: reference treatment, dose not stated
Description: Freund's complete adjuvant induced arthritis in the rat is an experimental model of polyarthritis that has been widely used for nonclinical testing of numerous anti-arthritic agents that are either under nonclinical or clinical investigation, or are currently used as therapeutics in this disease.

Q: Which “inhibition of ankle diameter AUC (d7-14) increase” value does the source give for `C[C@@H]1C[C@H]2[C@@H]3CCC4=CC(=O)C=C[C@]4(C)[C@@]3(F)[C@@H](O)C[C@]2(C)[C@@]1(O)C(=O)CO` [dexamethasone, reference compound] here?
A: 71%

Q: What about the “reduction of histopathologic bone resorption” value of the same compound?
A: 97%

Q: And the “reduction of histopathologic inflammation” value?
A: 56%

system: B cell; experiment: B cell proliferation; assay type: cell-based; conditions: not given

Q: `CCC(Nc1ncnc2[nH]cnc12)c1cc2cccc(C)c2c(=O)n1-c1cc(F)cc(F)c1` (stereo not shown) [Compound 224] was tested. Which EC50 did it give?
A: < 100 nM

Q: Which EC50 does the source give for `Cc1cccc2cc(C(C)Nc3ncnc4[nH]cnc34)n(C3CCN(C)CC3)c(=O)c12` (stereo not shown) [Compound 227] here?
A: < 100 nM

Q: `CCC(Nc1ncnc2[nH]cnc12)c1cc2cccc(C)c2c(=O)n1C1CCN(C)CC1` (stereo not shown) [Compound 228] was tested. Which EC50 did it give?
A: < 100 nM

Q: Which EC50 does the source give for `Cc1cccc2cc(C(C)Nc3ncnc4[nH]cnc34)n(-c3cccc(F)c3)c(=O)c12` (stereo not shown) [Compound 229] here?
A: < 100 nM

Q: How did the EC50 turn out when `Cc1cccc2cc([C@H](C)Nc3ncnc4[nH]cnc34)n(C(C)C)c(=O)c12` [Compound 230] was run?
A: < 100 nM

Q: `Cc1cccc2cc(C(C)Nc3ncnc4[nH]cnc34)n(C3CCCC3)c(=O)c12` (stereo not shown) [Compound 231] was tested. Which EC50 did it give?
A: < 100 nM

Q: How did the EC50 turn out when `Cc1cccc2cc(C(C)Nc3ncnc4[nH]cnc34)n(CCN3CCOCC3)c(=O)c12` (stereo not shown) [Compound 232] was run?
A: < 100 nM

Q: `Cc1cccc2cc(C(C)Nc3ncnc4[nH]cnc34)n(CCN3CCCC3)c(=O)c12` (stereo not shown) [Compound 233] was tested. Which EC50 did it give?
A: < 100 nM

Q: `Cc1cccc2cc(C(C)Nc3ncnc4[nH]cnc34)n(C3CCOCC3)c(=O)c12` (stereo not shown) [Compound 234] was tested. Which EC50 did it give?
A: < 100 nM

Q: With `Cc1cccc2cc(Cn3nc(-c4ccc5nc(N)oc5c4)c4c(N)ncnc43)n(-c3ccccc3)c(=O)c12` [Compound 235] as the compound, how does the EC50 read?
A: < 10000 nM

Q: How did the EC50 turn out when `CC(Nc1ncnc2[nH]cnc12)c1cc2cccc(Cl)c2c(=O)n1-c1ccccc1` (stereo not shown) [Compound 237] was run?
A: < 100 nM

Q: For `Cc1ccccc1-n1c(Cn2nc(-c3ccc4nc(N)oc4c3)c3c(N)ncnc32)cc2cccc(C)c2c1=O` [Compound 243], which EC50 is on record?
A: < 1000 nM

Q: For `Cc1cccc2cc([C@H](C)Nc3nc(Cl)nc4[nH]cnc34)n(-c3ccccc3)c(=O)c12` [Compound 244], which EC50 is on record?
A: < 100 nM

Q: `Cc1cccc2cc([C@H](C)Nc3nc(F)nc4[nH]cnc34)n(-c3ccccc3)c(=O)c12` [Compound 245] was tested. Which EC50 did it give?
A: < 100 nM

Q: How did the EC50 turn out when `Cc1cccc2cc([C@H](C)Nc3ncnc4[nH]ccc34)n(-c3ccccc3)c(=O)c12` [Compound 247] was run?
A: < 100 nM

Q: Which EC50 does the source give for `Cc1cccc2cc([C@H](C)Nc3nc(Cl)ncc3Cl)n(-c3ccccc3)c(=O)c12` [Compound 248] here?
A: < 100 nM

Q: How did the EC50 turn out when `Cc1cccc2cc([C@H](C)Nc3nc(N)ncc3Cl)n(-c3ccccc3)c(=O)c12` [Compound 249] was run?
A: < 100 nM

Q: How did the EC50 turn out when `CC(=O)Nc1nc2cc(-c3nn(Cc4cc5cccc(C)c5c(=O)n4-c4ccccc4C)c4ncnc(N)c34)ccc2o1` [Compound 251] was run?
A: < 100 nM

Q: `Cc1cccc2cc(Cn3nc(-c4ccc5nc(N)sc5c4)c4c(N)ncnc43)n(-c3ccccc3)c(=O)c12` [Compound 252] was tested. Which EC50 did it give?
A: < 100 nM

Q: `CC(=O)Nc1nc2cc(-c3nn(Cc4cc5cccc(C)c5c(=O)n4-c4ccccc4)c4ncnc(N)c34)ccc2o1` [Compound 253] was tested. Which EC50 did it give?
A: < 100 nM

Q: `Cc1cccc2cc([C@H](C)Nc3ncnc4[nH]cc(F)c34)n(-c3ccccc3)c(=O)c12` [Compound 254] was tested. Which EC50 did it give?
A: < 100 nM

Q: For `Cc1cccc2cc([C@H](C)Nc3ncnc4[nH]nc(C#N)c34)n(-c3ccccc3)c(=O)c12` [Compound 255], which EC50 is on record?
A: < 100 nM

Q: Which EC50 does the source give for `Cc1cccc2cc([C@H](C)Nc3ncnc4[nH]nc(C(N)=O)c34)n(-c3ccccc3)c(=O)c12` [Compound 256] here?
A: < 100 nM

Q: `Cc1cccc2cc([C@H](C)Nc3ncnc4[nH]cc(Br)c34)n(-c3ccccc3)c(=O)c12` [Compound 257] was tested. Which EC50 did it give?
A: < 100 nM

Q: How did the EC50 turn out when `C[C@H](Nc1ncnc2[nH]cnc12)c1cc2cccc(Cl)c2c(=O)n1C1CC1` [Compound 270] was run?
A: < 100 nM

Q: How did the EC50 turn out when `Cc1ccccc1-n1c(Cn2nc(-c3ccc4sc(N)nc4c3)c3c(N)ncnc32)cc2cccc(C)c2c1=O` [Compound 276] was run?
A: < 100 nM

Q: `Cc1cccc2cc(Cn3nc(-c4ccc5sc(N)nc5c4)c4c(N)ncnc43)n(-c3ccccc3)c(=O)c12` [Compound 277] was tested. Which EC50 did it give?
A: < 100 nM

Q: With `Cc1cccc2cc([C@H](C)Nc3ncnc4[nH]cc(F)c34)n(C3CC3)c(=O)c12` [Compound 278] as the compound, how does the EC50 read?
A: < 100 nM

Q: For `Cc1cccc2cc([C@H](C)Nc3ncnc4[nH]cc(C#N)c34)n(C3CC3)c(=O)c12` [Compound 289], which EC50 is on record?
A: < 100 nM

Q: `Cc1cccc2cc([C@H](C)Nc3ncnc4[nH]cnc34)n(-c3cccc(F)c3)c(=O)c12` [Compound 290] was tested. Which EC50 did it give?
A: < 100 nM

Q: How did the EC50 turn out when `CCc1nn(Cc2cc3cccc(C)c3c(=O)n2-c2ccccc2C)c2ncnc(N)c12` [Compound 294] was run?
A: < 1000 nM

Q: With `Cc1ccccc1-n1c(Cn2nc(-c3ccc4nc(N)[nH]c4c3)c3c(N)ncnc32)cc2cccc(C)c2c1=O` [Compound 295] as the compound, how does the EC50 read?
A: < 100 nM

Q: How did the EC50 turn out when `CC(=O)Nc1nc2ccc(-c3nn(Cc4cc5cccc(C)c5c(=O)n4-c4ccccc4C)c4ncnc(N)c34)cc2[nH]1` [Compound 296] was run?
A: < 100 nM

Q: Which EC50 does the source give for `Cc1ccccc1-n1c(Cn2nc(C(N)=O)c3c(N)ncnc32)cc2cccc(C)c2c1=O` [Compound 298] here?
A: < 100 nM

Q: With `Cc1ccccc1-n1c(Cn2nc(C(=O)NO)c3c(N)ncnc32)cc2cccc(C)c2c1=O` [Compound 300] as the compound, how does the EC50 read?
A: < 100 nM

Q: For `C=Cc1nn(Cc2cc3cccc(C)c3c(=O)n2-c2ccccc2)c2ncnc(N)c12` [Compound 301], which EC50 is on record?
A: < 100 nM

Q: `Cc1cccc2cc(Cn3nc(-c4ccc5nc(N)[nH]c5c4)c4c(N)ncnc43)n(-c3ccccc3)c(=O)c12` [Compound 302] was tested. Which EC50 did it give?
A: < 100 nM

Q: `CCc1nn(Cc2cc3cccc(C)c3c(=O)n2-c2ccccc2)c2ncnc(N)c12` [Compound 303] was tested. Which EC50 did it give?
A: < 100 nM

Q: How did the EC50 turn out when `Cc1ccccc1-n1c(Cn2nc(C(F)F)c3c(N)ncnc32)cc2cccc(C)c2c1=O` [Compound 306] was run?
A: < 100 nM

Q: With `Cc1cccc2cc(Cn3nc(C(F)F)c4c(N)ncnc43)n(-c3ccccc3)c(=O)c12` [Compound 308] as the compound, how does the EC50 read?
A: < 100 nM

Q: Which EC50 does the source give for `Cc1ccccc1-n1c(Cn2nc(CF)c3c(N)ncnc32)cc2cccc(C)c2c1=O` [Compound 310] here?
A: < 100 nM

Q: Which EC50 does the source give for `Cc1cccc2cc(Cn3nc(CF)c4c(N)ncnc43)n(-c3ccccc3)c(=O)c12` [Compound 311] here?
A: < 100 nM

Q: `Cc1ccccc1-n1c(Cn2nc(CC#N)c3c(N)ncnc32)cc2cccc(C)c2c1=O` [Compound 312] was tested. Which EC50 did it give?
A: < 1000 nM
